Results on three compounds are retold here after PMC5602538, “Assessment of the Drug Interaction Potential of Unconjugated and GalNAc3-Conjugated 2′-MOE-ASOs” (Molecular Therapy. Nucleic Acids, 2017).

In one series the test system is T1, P-gp.
T1 construct: host or cells: MDCK-MDR1 (MDCK cells stably transfected with MDR1)
Put plainly: P-gp inhibition study in MDCK-MDR1 cells. The conditions noted are these: human, probe [3H]-quinidine, 100 nM. In kind it is in vitro ADME. As to the method:
MDCK-MDR1 cells and MDCK-II cells transfected with BCRP were washed with HBSS at 37°C. Wells of the culture plate served as the apical compartment, and 150 μL of HBSS solutions was added to the apical wells. These solutions also contain one of the following: vehicle (for probe substrate controls), 100 μM test article (for test article inhibition experiments), 1 μM Ko143 (for BCRP inhibition), or 3 μM elacridar (for P-gp inhibition). A 96-well receiver tray was prepared with each well containing 300 μL of buffer solution corresponding to the apical wells. Receiver tray wells served as the basal compartment. The plate and receiver tray were assembled and incubated at 37°C for 30 min. The solution was then aspirated from the apical compartment and the 96-well plate was removed from the receiver tray. […] These samples were counted on a 1450 Microbeta (PerkinElmer). For samples containing test articles, samples were quantitated using LC-MS.
Net basal (B) to apical (A) flux (B→A) of the substrate transport by BCRP and P-gp was calculated by subtracting (A→B) flux from (B→A) flux as: netB→Aflux(pmol/min/cm^2)=(B→A)flux-(A→B)flux.
Percent inhibition was calculated by dividing the net flux (B→A) in the presence of the test article or the reference inhibitor by the net flux (B→A) in the absence of the inhibitor as: %inhibition=100−(100×netfluxwithinhibitor/(meannetflux)withoutinhibitor).

The next series deals with CYP2E1 (Homo sapiens, UniProt P05181). Put plainly: CYP2E1 inhibition in cryopreserved human hepatocyte suspensions (chlorzoxazone probe).
The next series has as its target T2, CYP2B6 (Homo sapiens, UniProt P20813).
T2 sequence (P20813 1-491): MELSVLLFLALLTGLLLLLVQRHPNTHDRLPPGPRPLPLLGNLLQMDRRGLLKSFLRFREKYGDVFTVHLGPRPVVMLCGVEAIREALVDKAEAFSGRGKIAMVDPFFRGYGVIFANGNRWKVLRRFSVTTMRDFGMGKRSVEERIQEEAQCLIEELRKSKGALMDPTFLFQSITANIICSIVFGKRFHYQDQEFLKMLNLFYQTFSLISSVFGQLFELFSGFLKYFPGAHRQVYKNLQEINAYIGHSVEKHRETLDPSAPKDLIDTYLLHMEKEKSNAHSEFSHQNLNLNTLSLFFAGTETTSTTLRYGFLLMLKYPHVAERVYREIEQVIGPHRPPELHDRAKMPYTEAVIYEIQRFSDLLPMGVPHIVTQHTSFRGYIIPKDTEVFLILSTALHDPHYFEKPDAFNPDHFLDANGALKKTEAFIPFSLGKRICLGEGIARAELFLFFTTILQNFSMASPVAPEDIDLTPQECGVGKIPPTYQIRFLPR
Put plainly: biochemical.

Sequence of CYP2E1 (P05181 whole entry): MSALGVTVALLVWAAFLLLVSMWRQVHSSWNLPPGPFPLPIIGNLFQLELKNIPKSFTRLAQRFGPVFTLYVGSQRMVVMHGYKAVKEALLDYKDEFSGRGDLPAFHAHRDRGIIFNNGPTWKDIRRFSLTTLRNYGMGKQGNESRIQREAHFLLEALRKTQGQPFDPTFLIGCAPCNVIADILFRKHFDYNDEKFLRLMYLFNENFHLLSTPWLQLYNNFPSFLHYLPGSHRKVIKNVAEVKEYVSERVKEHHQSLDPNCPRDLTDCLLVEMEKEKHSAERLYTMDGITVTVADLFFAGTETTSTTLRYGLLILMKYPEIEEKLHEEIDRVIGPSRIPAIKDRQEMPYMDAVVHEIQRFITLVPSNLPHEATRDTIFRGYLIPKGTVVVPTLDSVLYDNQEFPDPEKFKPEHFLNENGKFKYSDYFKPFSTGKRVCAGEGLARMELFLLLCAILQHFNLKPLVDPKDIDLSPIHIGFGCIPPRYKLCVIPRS
Method for CYP2B6: (§1) Preincubations were performed in 50 μL of Williams’ Medium E with 2 mM salicylamide. The salicylamide was included to reduce possible phase II conjugation to the precursor phase I metabolites. […] Human hepatocytes (pooled from 5 donors) were thawed and prepared according to the vendor’s protocol. […] Incubations were carried out at 37°C with 5% CO2. The incubation time was 45 min for phenacetin, diclofenac, dextromethorphan, midazolam, bupropion, chlorzoxazone, and testosterone and 90 min for paclitaxel and (S)-mephenytoin. The reactions were stopped by adding 200 μL of ice-cold acetonitrile (can) with tolbutamide (100 ng/mL) as the internal standard to 100 μL of hepatocyte suspension (1:2, v/v). The 96-well plate was then vortexed at 1,700 rpm for 3 min and centrifuged at 3,500 rpm for 10 min at 20°C. The supernatants were analyzed using liquid chromatography-tandem MS (LC-MS/MS).
Method for CYP2E1: as §1

Take `COc1cc2c(cc1OC)CN(CCc1ccc(NC(=O)c3cccc4c(=O)c5cccc(OC)c5[nH]c34)cc1)CC2` [elacridar]: the inhibition at 90 min, 3 μM with P-gp was 90.2 ± 1.42%.

As to `Cc1ncsc1CCCl` [chlormethiazole], at CYP2E1, half-maximal inhibition (IC50) was put at 1.08 nM.

On to `COC(=O)[C@H](c1ccccc1Cl)N1CCc2sccc2C1` [clopidogrel], for which the IC50 against CYP2B6 is 163 nM.
